Values after ≈ are worked out from the molar mass of the structure shown.
Columns and labels:
Canis familiaris [1] = species: Canis familiaris; assay: Compound was evaluated for conduction time from stimulating to intracellular recording electrode at 10 uM concentration on Isolated Canine Purkinje Fibers; type: functional, Canis lupus familiaris, Purkinje fiber
Canis familiaris [2] = species: Canis familiaris; assay: Action potential amplitude at 10 uM concentration on Isolated Canine Purkinje Fibers was determined; type: functional, Canis lupus familiaris, Purkinje fiber
Canis familiaris [3] = species: Canis familiaris; assay: Action potential duration at 95% of repolarization was determined at 10 uM concentration on Isolated Canine Purkinje Fibers; type: functional, Canis lupus familiaris, Purkinje fiber
Canis familiaris [4] = species: Canis familiaris; assay: Resting potential on Isolated Canine Purkinje Fibers at 10 uM concentration; type: functional, Canis lupus familiaris, Purkinje fiber
Canis familiaris [5] = species: Canis familiaris; assay: Action potential duration at 50% of repolarization was determined at 10 uM concentration on Isolated Canine Purkinje Fibers; type: functional, Canis lupus familiaris, Purkinje fiber
Canis familiaris [6] = species: Canis familiaris; assay: Maximal rate of depolarization at 10 uM concentration on Isolated Canine Purkinje Fibers; type: functional; conditions: Canis lupus familiaris, Purkinje fiber
Homo sapiens [7] = species: Homo sapiens; assay: Inhibition of C5a-induced luminol dependent chemiluminescence of human neutrophils; type: functional
Oryctolagus cuniculus = species: Oryctolagus cuniculus; assay: In vitro inhibition of iron-dependent peroxidation of rabbit brain vesicular membrane lipids; type: functional
[8] = Oxidation potential as carbon paste disc electrode against a Ag/AgCl reference electrode
[9] = Plasma concentration in dogs when measured 1 and 5 hours following initiation of reperfusion at 300 min; type: ADME, organism-based, Canis lupus familiaris; conditions: dog
[10] = Plasma concentration in dogs when measured 1 and 5 hours following initiation of reperfusion at 60 min; type: ADME, organism-based, Canis lupus familiaris; conditions: dog
Canis familiaris [11] = species: Canis familiaris; assay: Compound was evaluated for conduction time from stimulating to intracellular recording electrode at 100 uM concentration on Isolated Canine Purkinje Fibers; type: functional, Canis lupus familiaris, Purkinje fiber
Canis familiaris [12] = species: Canis familiaris; assay: Action potential duration at 50% of repolarization was determined at 100 uM concentration on Isolated Canine Purkinje Fibers; type: functional, Canis lupus familiaris, Purkinje fiber
Canis familiaris [13] = species: Canis familiaris; assay: Resting potential on Isolated Canine Purkinje Fibers at 100 uM concentration; type: functional, Canis lupus familiaris, Purkinje fiber
Canis familiaris [14] = species: Canis familiaris; assay: Maximal rate of depolarization at 100 uM concentration on Isolated Canine Purkinje Fibers; type: functional; conditions: Canis lupus familiaris, Purkinje fiber
[15] = Plasma concentration in dogs when measured 1 and 5 hours following initiation of reperfusion at 30 min; type: ADME, organism-based, Canis lupus familiaris; conditions: dog
Canis familiaris [16] = species: Canis familiaris; assay: Action potential amplitude at 100 uM concentration on Isolated Canine Purkinje Fibers was determined; type: functional, Canis lupus familiaris, Purkinje fiber
Homo sapiens [17] = species: Homo sapiens; assay: Inhibition of C5a-induced luminol dependent chemiluminescence of human neutrophils; NS - Not sufficiently soluble in saline for testing; type: functional
Homo sapiens [18] = species: Homo sapiens; assay: Inhibition of C5a-induced luminol dependent chemiluminescence of human neutrophils; NA - compound found inactive at 10 uM; type: functional

Structure (SMILES) | CT (Canis familiaris [1]) | APA (Canis familiaris [2]) | APD95 (Canis familiaris [3]) | RP (Canis familiaris [4]) | APD50 (Canis familiaris [5]) | Vmax (Canis familiaris [6]) | EC50 (Homo sapiens [7]) | MIC (Oryctolagus cuniculus) | E1/2 [8] | further results
CCN(CC)c1nc(NCCNC(=O)c2ccccc2)c2ccccc2n1.O=C(O)C(=O)O | 119 ms | -15 mV | -2 ms | -3 mV | -34 ms | -43 V s-1 |  |  |  | 
CCN(CC)c1nc(NCCNC(=O)c2cc(O)c(O)c(OC)c2)c2ccccc2n1 |  |  |  |  |  |  | 900 nM | 10 µM (≈ 4.25 µg/mL) | 130 mV | 
CCN(CC)c1nc(NCCNC(=O)c2ccc(F)cc2)c2ccccc2n1.O=C(O)C(=O)O | 72 ms | -15 mV | 1 ms | -3 mV | -48 ms | -54 V s-1 |  |  |  | 
CCN(CC)c1nc(NCCNC(=O)c2cc(O)c(O)c(O)c2)c2ccccc2n1.CS(=O)(=O)O | 7 ms | 0 mV | 1 ms | 0 mV | -1 ms | -2 V s-1 | 300 nM | 3 µM | 15 mV | concentration at 5 h [9]: 1300 ng/mL; concentration at 60 min [10]: 1700 ng/mL; APA (Canis familiaris [11]): -9 mV; CT (Canis familiaris [11]): 11 ms; APD95 (Canis familiaris [12]): 11 ms; RP (Canis familiaris [13]): -4 mV; Vmax (Canis familiaris [14]): -32 V s-1; concentration at 30 min [15]: 240 ng/mL; APD50 (Canis familiaris [16]): -13 ms
CCN(CC)c1nc(NCCNC(=O)c2cc(OC)c(OC)c(OC)c2)c2ccccc2n1 [listing 1 of 2 here] | 123 ms | -14.4 mV | -24 ms | -4 mV | -46 ms |  |  |  |  | 
CCN(CC)c1nc(NCCNC(=O)c2cc(O)c(OC)c(OC)c2)c2ccccc2n1.CS(=O)(=O)O |  |  |  |  |  |  |  | > 100 µM | 440 mV | EC50 (Homo sapiens [17]): Not Active
CCN(CC)c1nc(NCCNC(=O)c2ccc(OC)cc2)c2ccccc2n1.O=C(O)C(=O)O | 17 ms | -11 mV | -5 ms | -6 mV | -35 ms | -30 V s-1 |  |  |  | 
CCN(CC)c1nc(NCCNC(=O)c2cc(OC)c(O)c(OC)c2)c2ccccc2n1 |  |  |  |  |  |  | 3300 nM | > 100 µM | 340 mV | 
CCN(CC)c1nc(NCCNC(=O)c2ccccc2OC)c2ccccc2n1 | 71 ms | -31 mV | 15 ms | -15 mV | -24 ms | -71 V s-1 |  |  |  | 
CCN(CC)c1nc(NCCNC(=O)c2cc(OC)c(OC)c(OC)c2)c2ccccc2n1 [listing 2 of 2 here] |  |  |  |  |  | -40 V s-1 |  |  | > 600 mV | 
CCN(CC)c1nc(NCCNC(=O)c2ccc(C(F)(F)F)cc2)c2ccccc2n1.O=C(O)C(=O)O | 79 ms | -23 mV | 2 ms | -7 mV | -24 ms | -62 V s-1 |  |  |  | 
CCN(CC)c1nc(NCCNC(=O)c2cc(O)c(OC)c(O)c2)c2ccccc2n1 |  |  |  |  |  |  | 9500 nM | > 100 µM | 320 mV | 
CCN(CC)c1nc(NCCNC(=O)c2cc(OC)c(OC)c(OC)c2)c2ccccc2n1.CS(=O)(=O)O |  |  |  |  |  |  |  | > 100 µM |  | EC50 (Homo sapiens [18]): Not Active

Source: ChEMBL document CHEMBL1126458, “Structurally novel antiarrhythmic / antioxidant quinazolines” (Bioorg Med Chem Lett, 1992)
